# Entries after “also recorded” stand apart in the source; their conditions may differ. Read-outs that look alike come from different tables or passages of the source.
# Assays:
# [1] = system: stationary phase B. burgdorferi; assay: Residual viable B. burgdorferi by epifluorescence microscope counting after drug exposure; settings: for viability at 50 µM: Borreliella burgdorferi, 168 h, read-out: Residual viable cells (Microscopy)
# Experimental: (§1) Borrelia burgdorferi strain B31 (ATCC35210) was received from the […] (Manassas, Va., USA) and was grown in BSK-H medium (HiMedia Laboratories, Mumbai, India) and 6% rabbit serum (Sigma Aldrich, St. Louis, Mo., USA). The culture was filtered and sterilized using a […] and incubated in capped sterile 50 mL conical tubes (BD Biosciences, CA, USA) at 33° C. for 7 days without antibiotics until the culture reached stationary phase.
# (§2) The cultures were examined using a Nikon Eclipse E800 microscope with differential interference contrast and epifluorescent illumination. The pictures were captured using a SPOT slider color camera. A SYBR Green I/PI assay was used to assess the viability of the bacterial sample using the ratio of live to dead B. burgdorferi (measured with green and red fluorescence, respectively) as measured by a plate reader.
# (§3) Briefly, prediluted drug stock (10 μL) was added to 7 day old stationary phase B. burgdorferi culture (90 μL) to achieve a 50 μM final drug concentration per well. The plates were then incubated at 33° C. for 7 days at which point the SYBR/PI rapid viability assay was performed in a fluorescence plate reader to obtain the green-red fluorescence ratio.
# growing B. burgdorferi = assay: MIC of active hits; format: cell-based, Borrelia burgdorferi
# [2] = system: stationary phase B. burgdorferi; assay: SYBR Green I/PI viability assay (drug library screen, plate reader); settings: for viability at 50 µM: Borreliella burgdorferi, 168 h; for viability at 50 µM / Residual viable cells (SYBR Green/PI) / Residual viable cells (SYBR/PI): drugs 50 μM; for activity against stationary phase B. burgdorferi (in words): screen at 50 μM, 7 days; for Residual viable cells (SYBR Green/PI): Table 1; for Residual viable cells (SYBR/PI): Table 3
# Experimental: as §1, §2, §3
# [3] = Borreliella burgdorferi, read-out: MIC
# [4] = read-out: Residual viable cells (SYBR Green/PI), Table 1, 7 day old stationary phase cells treated for 7 days
# [5] = read-out: Residual viable cells (SYBR/PI), Table 3, 7-day old stationary phase cells treated for 7 days
# [6] = Table 1, drugs 50 μM, 7 day old stationary phase cells treated for 7 days
# [7] = Table 3, drugs 50 μM, 7-day old stationary phase cells treated for 7 days
# [8] = 7 day old stationary phase cells treated for 7 days
# [9] = 7-day old stationary phase cells treated for 7 days
Compound,viability at 50 µM [1],MIC (growing B. burgdorferi; [3]),"viability at 50 µM [2, 4]","viability at 50 µM [2, 5]",activity against stationary phase B. burgdorferi (in words) [2],"Residual viable cells (Microscopy) [1, 6]","Residual viable cells (Microscopy) [1, 7]",MIC (growing B. burgdorferi),"Residual viable cells (SYBR Green/PI) [2, 8]","Residual viable cells (SYBR/PI) [2, 9]",Residual viable cells (Microscopy) [1]
"O=C(O)[C@@H]1CCC(O)=N1 (racemic) [Pidolic acid, DL-2-Pyrrolidone-5-Carboxylic Acid]",45%,0.81 to 1.61 µg/mL,45%,43%,high activity,,,,,,
CO[C@H]1/C=C/O[C@@]2(C)Oc3c(C)c(O)c4c(O)c(c(C=O)c(O)c4c3C2=O)NC(=O)/C(C)=C\C=C\[C@H](C)[C@H](O)[C@@H](C)[C@@H](O)[C@@H](C)[C@H](OC(C)=O)[C@@H]1C [3-formyl Rifamycin],,,,,,59%,59%,2.27 to 4.54 µg/mL,42%,42%,
CCCCCCCCCCCC[N+](C)(C)Cc1ccccc1 [Benzododecinium chloride],,0.6 to 1.2 µg/mL,,40%,very high activities,,,,,,
OC(Cn1cncn1)(Cn1cncn1)c1ccc(F)cc1F [Fluconazole],45%,0.48 to 0.96 µg/mL,55%,55%,reasonable activity,,,,,,
Cc1c(-c2cnccn2)ssc1=S [Oltipraz],55%,0.71 to 1.41 µg/mL,46%,46%,high activity,,,,,,
CCCCCCCCCCCCCCCC[N+](C)(C)CCN(Cc1ccc(OC)cc1)c1ncccn1 [Thonzonium bromide],33%,0.92 to 1.85 µg/mL,,31%,very high activities; also recorded: comparable activity to daptomycin,,,,,,
Dextrorphan tartrate,,,,,high activity,43%,43%,1.27 to 2.55 µg/mL,47%,47%,
Mepartricin,,,,,reasonable activity,60%,,,43%,43%,
Potassium antimonyl tartrate trihydrate [Tartar emetic],,,,,,45%,45%,,42%,42%,
Verteporfin,,,,,high activity,,,4.49 to 8.98 µg/mL,,,47%
